Data taken from patent US7425558B2, “Serotonergic agents for treating sexual dysfunction” (Wyeth, priority 2000, dated 2008).

Columns and labels:
[1] = tested on: sexually experienced male rats (Sprague-Dawley rats); assay: Non-contact penile erections in sexually experienced male rats (animal model of drug-induced sexual dysfunction); assay type: in vivo; conditions: for Reversal of fluoxetine-induced sexual dysfunction: administered acutely after 7 or 14 days of fluoxetine treatment; for Prevention of deficit in non-contact penile erections produced by chronic fluoxetine: co-administered with fluoxetine 10 mg/kg for 7 or 14 days, Example compound 3 1 mg/kg, Example compound 2 0.3 mg/kg
Method: The animal model is based on the finding that sexually experienced rats that are administered an SSRI, a drug used to treat certain conditions such as depression, display a reduction in the number of non-contact penile erections. SSRI treatment is associated with sexual dysfunction in human subjects. In general, the animal model exposes sexually experienced male rats (Sprague-Dawley rats) to female rats in estrous in a novel testing arena that is not the regular housing environment.
The ability of various drugs associated with sexual dysfunction in humans to cause sexual dysfunction in the animal model was tested using three different drugs, bupropion (20 mg/kg), desipramine (10 mg/kg), and fluoxetine (10 mg/kg), or vehicle alone (0.9% saline), each administered intraperitoneally (i.p.), once per day for 14 days. After the treatment period, animals were tested for the frequency of non-contact penile erections over a 30 minute trial period.
To examine the time course of the effects of a drug that causes sexual dysfunction, rats that were handled and tested as described above were treated acutely: rats were treated with vehicle for 6 days, and on the test day (day 7) instead of vehicle, the animals received a single dose of fluoxetine in vehicle (i.p.). For a subchronic (7 day) study, fluoxetine was administered each day for 7 days and the animals were evaluated on test day 7. For the chronic 14 day study, fluoxetine was administered each day for 14 days and the animals were tested on day 14. Each fluoxetine dose was 10 mg/kg in vehicle and was delivered i.p. on each of the test days as described above.
To test the ability of a 5-HT1A antagonist to ameliorate the effects of sexual dysfunction, sexually experienced rats were administered an SSRI using an acute or subchronic (7 day) schedule and then tested for sexual function as described above.
In these experiments, rats were treated with vehicle only on days 1-13 then administered a single acute dose of 0.1 mg/kg of the compound (group 1), vehicle only for days 1-13 and a single dose of 1.0 mg/kg compound in vehicle on day 14 (group 2), only vehicle on days 1-14 (group 3), fluoxetine on days 1-14 (group 4), fluoxetine on days 1-13 and a single administration of 0.1 mg/kg of the compound and fluoxetine on day 14 (group 5); and fluoxetine on days 1-13 and a single dose of 1.0 mg/kg compound with fluoxetine on day 14 (group 6). For each group, behavior testing was performed for 30 minutes immediately following drug administration on day 14 only.
Experiments were conducted to assess the ability of a 5-HT1A antagonist to prevent the effects of SSRI treatment. Rats, as described supra, were co-administered a 5-HT1A antagonist and an SSRI. […] The administered SSRI was fluoxetine (10 mg/kg). The 5-HT1A antagonist and SSRI were co-administered for 7 or 14 days with the SSRI.

[2] = target: T1, cloned human 5-HT1A receptors (Homo sapiens, UniProt P08908); assay: Binding to cloned human 5-HT1A receptors in CHO cells, [3H]8-OH-DPAT radioligand; conditions: read-out: 5-HT1A Affinity Ki
T1 construct: expressed in transfected cells; host or cells: CHO cells
T1 sequence (P08908 1-422): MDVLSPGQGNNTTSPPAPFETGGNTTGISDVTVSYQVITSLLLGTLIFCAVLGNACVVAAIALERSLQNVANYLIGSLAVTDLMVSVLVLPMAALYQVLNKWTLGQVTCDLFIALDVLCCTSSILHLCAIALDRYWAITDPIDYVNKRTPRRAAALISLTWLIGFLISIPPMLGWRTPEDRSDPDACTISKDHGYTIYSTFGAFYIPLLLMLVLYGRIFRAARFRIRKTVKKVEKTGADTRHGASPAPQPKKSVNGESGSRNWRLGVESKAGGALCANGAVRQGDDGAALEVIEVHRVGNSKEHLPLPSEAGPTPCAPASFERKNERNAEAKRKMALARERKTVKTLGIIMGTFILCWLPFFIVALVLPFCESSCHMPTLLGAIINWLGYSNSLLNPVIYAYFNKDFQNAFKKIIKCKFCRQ

human 5-HT1A receptor = target: T2, human 5-HT1A receptor (Homo sapiens, UniProt P08908); assay: In vitro functional activity: antagonism of 8-OH-DPAT inhibition of forskolin-stimulated cAMP production; assay type: cell-based; conditions: antagonism of 10 nM 8-OH-DPAT inhibition of forskolin-stimulated cAMP production; read-out: 5-HT1A Antagonist Activity cAMP Assay IC50
T2 construct: expressed in transfected cells
T2 sequence (P08908 1-422): T1 sequence (P08908 1-422)

5-HT1A [3] = target: T3, 5-HT1A (Rattus norvegicus, UniProt P19327); assay: Fixed Responding Model, in vivo 5-HT1A antagonism of 8-OH-DPAT-induced decrease in response rate; design: species or system rats
T3 construct: from tissue; host or cells: whole animal (rat), behavioural model
T3 sequence (P19327 1-422): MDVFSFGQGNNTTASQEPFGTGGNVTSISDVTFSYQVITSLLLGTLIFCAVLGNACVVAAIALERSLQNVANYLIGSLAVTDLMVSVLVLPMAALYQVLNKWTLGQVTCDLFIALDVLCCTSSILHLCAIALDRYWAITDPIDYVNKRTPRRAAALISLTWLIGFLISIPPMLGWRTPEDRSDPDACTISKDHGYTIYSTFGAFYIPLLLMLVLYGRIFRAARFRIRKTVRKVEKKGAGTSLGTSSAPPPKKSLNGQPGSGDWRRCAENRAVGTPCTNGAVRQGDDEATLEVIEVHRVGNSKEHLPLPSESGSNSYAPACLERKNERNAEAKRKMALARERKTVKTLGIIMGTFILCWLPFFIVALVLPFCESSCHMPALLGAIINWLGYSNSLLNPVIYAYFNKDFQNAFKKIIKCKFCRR
Method: The ability of the compounds to function in vivo as 5-HT1A antagonists was assessed in rats using a Fixed Responding Model (D. Blackman, in “Operant Conditioning: An Experimental Analysis of Behavior”, J. Butcher, ed., Methuen and Co., Ltd., London). In this model rats are trained to respond (lever pressing) under a fixed-ratio 30 schedule of food presentation in order to receive a food pellet reinforcer. […] The 5-HT1A antagonist activity of a test compound is determined by measuring its ability to antagonize this agonist-induced decrease in response rate.

5-HT1A [4] = target: T3, 5-HT1A; assay: Duration of action in the Fixed Responding Model; assay type: in vivo, rats
Excerpt: All drug and vehicle administrations were made by the subcutaneous route.

## CNCCC(Oc1ccc(C(F)(F)F)cc1)c1ccccc1 (stereo not drawn) [fluoxetine, N-methyl-3-(p-trifluoromethylphenoxy)-3-phenylpropylamine, reference compound]
[1]; chronic (14 days) fluoxetine 10 mg/kg i.p.
  Sexual dysfunction (number of non-contact penile erections in 30 minutes): significant increase in sexual dysfunction
[1]; sub-chronic (7 days) fluoxetine 10 mg/kg i.p.
  Sexual dysfunction (number of non-contact penile erections in 30 minutes): significant increase in sexual dysfunction

## (R)-N-(2-methyl-(4-indolyl-1-piperazinyl)ethyl)-N-(2-pyridinyl)cyclohexanecarboxamide [Example compound 3]
[1]
  Reversal of fluoxetine-induced sexual dysfunction: complete and significant reversal
  Prevention of deficit in non-contact penile erections produced by chronic fluoxetine: prevented the deficit in non-contact penile erections
[1]; single dose 0.1 mg/kg on day 14 of fluoxetine 10 mg/kg/day i.p.
  Reversal of deficits in number of non-contact penile erections: full reversal
[1]; single dose 1.0 mg/kg on day 14 of fluoxetine 10 mg/kg/day i.p.
  Reversal of deficits in number of non-contact penile erections: full reversal

## COc1ccccc1N1CCN(CCN(C(=O)C2CCCCC2)c2ccccn2)CC1 [Example compound 2, N-[2-[4-(2-methoxyphenyl)-1-piperazinyl]ethyl]-N-(2-pyridinyl)cyclohexanecarboxamide]
[1]
  Reversal of fluoxetine-induced sexual dysfunction: complete and significant reversal
  Prevention of deficit in non-contact penile erections produced by chronic fluoxetine: prevented the deficit in non-contact penile erections
[1]; single acute dose after a period of drug-induced sexual dysfunction
  Effect on drug-induced sexual dysfunction: ameliorated sexual dysfunction

## C[C@H](CN(C(=O)c1ccc(C#N)cc1)c1ccccn1)N1CCN(c2cccc3c2OCCO3)CC1 [Example 1, (R)-4-Cyano-N-{2-[4-(2,3-Dihydro-Benzo[1,4]dioxin-5-yl)-Piperazin-1-yl]-Propyl}-N-Pyridin-2-yl-Benzamide]
[2]
  Ki: 1.6 nM
Human 5-HT1A receptor
  IC50: 25 nM
5-HT1A [3]; 1 mg/kg dose, 0.3 mg/kg 8-OH-DPAT
  Reversal of decrease in response rate induced by 8-OH-DPAT: completely reverses
5-HT1A [3]; 8-OH-DPAT (0.3 mg/kg sc) + Example compound 1 (1 mg/kg sc), vehicle control 2.4 ± 0.5
  Response Rate: 2.5 ± 0.2 responses/second
5-HT1A [4]; 30 minutes after administration
  Antagonism of agonist-induced decrease in responding: completely antagonize
5-HT1A [4]; Fixed Responding Model, sc
  Duration of action: > 4 h
5-HT1A [4]; administered 30 minutes prior to 8-OH-DPAT
  Dose Which Shifts Agonist Dose-response Curve by 10-fold: 1.0 mg/kg, sc
5-HT1A [4]; agonist given 2 hours following test drug administration
  5-HT1A antagonist effect on response rate: complete 5-HT1A antagonist effects
5-HT1A [4]; four hours post-administration
  5-HT1A antagonist effect on response rate: complete antagonism
5-HT1A [4]; test compound sc (Table 3 dose) 0.5 hour before 0.3 mg/kg 8-OH-DPAT, 100% = vehicle control response rate
  % Response Rate, 0.5 hour pretreatment: 100 ± 7%
5-HT1A [4]; test compound sc (Table 3 dose) 2 hours before 0.3 mg/kg 8-OH-DPAT, 100% = vehicle control response rate
  % Response Rate, 2 hour pretreatment: 118 ± 13%
5-HT1A [4]; test compound sc (Table 3 dose) 4 hours before 0.3 mg/kg 8-OH-DPAT, 100% = vehicle control response rate
  % Response Rate, 4 hour pretreatment: 99 ± 16%
